The values below come from patent US20260232572A1, “INJECTABLE COMPOSITION, PHARMACEUTICAL FORMULATION INCLUDING THE SAME, AND METHOD FOR PREPARING THE COMPOSITION” (ONCONIC THERAPEUTICS INC., priority 2023, published 2026).

The structures appear in SMILES notation. Where two headings read alike, the source gives them in different places.

Data set [1] is described as follows: Bioavailability on oral administration, citrate of Compound 1 compared to free base. To be noted: orally administered. Format: in vivo.
The nature of data set [2]: Solubility of citrate of Compound 1 depending on pH. It is filed as physicochemical.

A word on the solubility: it is how much of the substance goes into solution per volume.

With `Cc1cccc(C)c1CNc1cc(C(=O)N2CCC2)cn2c(C)c(C)nc12.O=C(O)CC(O)(CC(=O)O)C(=O)O` [citrate of Compound 1, azetidin-1-yl{8-[(2,6-dimethylbenzyl)amino]-2,3-dimethylimidazo[1,2-a]pyridin-6-yl}methanone citrate], the “AUC compared to Compound 1 free base” value in data set [1] is listed as “at least five”. The “Cmax compared to Compound 1 free base” value in data set [1] was not below 11 times. Further, in data set [1] (compared to Compound 1 free base), the “time to reach highest blood concentration” value is “within a short time compared to Compound 1”. For the same compound, the solubility is less than 1500 µg/mL in data set [2] (aqueous buffer, pH 3 or higher, particularly pH 3.3 or higher, read-out: solubility); “very excellent solubility” in data set [2] (below pH 3); “excellent solubility” in data set [2] (pH 3 to 4.7, due to SBE-β-CD).
